Literature values in PubChem BioAssay AID1259409 (Chemical Carcinogenesis Research Information System (CCRIS), 2018).

System: rodent chemically induced tumor inhibition, incidence and multiplicity
Experiment: CCRIS tumor inhibitor studies
Conditions: 57-97-6; for outcome: Carcinogen: 7,12-Dimethylbenz(a)anthracene, Route [Inhibitor]: Oral (gavage), Species: Rat, Strain/Sex: (16/Group), Target Tissue: Type of Lesion: Mammary Gland: tumor, Dose [Carcinogen]: 100 mg/kg once at 50 days of age, Promoter: None

Compound | outcome (Dose [Inhibitor]: 0, 1 g/kg/day for 4 wks, study duration 4 wks) | outcome (Dose [Inhibitor]: 0, 1 g/kg/day for 11 wks, study duration 11 wks) | tumour outcome (control, treated, inhibition, significance) (Carcinogen: 7,12-DIMETHYLBENZ[A]ANTHRACENE, Dose [Inhibitor]: 0, 24 UG/KG IN ARACHIS OIL (5 ML/KG) REDUCED TO 16 UG/KG AFTER 4 WK 5/WK BEGINNING 1 D POST CARCINOGEN DOSE (STUDY DURAT, Route [Inhibitor]: GAVAGE, Species: RAT, Strain/Sex: SPRAGUE-DAWLEY/FEMALE, Target Tissue: Type of Lesion: MAMMARY GLAND: TUMOR, Dose [Carcinogen]: 15 MG IN ARACHIS OIL ONCE AT 50 D OF AGE, Promoter: NONE USED)
NC(=O)CC[C@H](N)C(=O)O | 93.8%, 31.2% | 93.8%, 43.7% | –
CCOC(=O)c1ccc(/C=C(\C)c2ccc3c(c2)C(C)(C)CCC3(C)C)cc1 | – | – | 96%, 72%, 25%, not calculated
